Where a SMILES comes first, the peptide text is derived from it. Bridges are numbered along the chain shown (N, C = ends). [ ]: non-standard residue; d: D form. The star is where a group is joined. hPhe(3-Cl-4-CF3) = N[C@@H](CCc1ccc(C(F)(F)F)c(Cl)c1)C(=O)O; NPrPhe(4-CF3) = CCCN[C@@H](Cc1ccc(C(F)(F)F)cc1)C(=O)O; NMeGly(cPent) = CN[C@H](C(=O)O)C1CCCC1; Pro(4,4-F2) = O=C(O)[C@@H]1CC(F)(F)CN1; Hyp = O=C(O)[C@@H]1C[C@@H](O)CN1; NMeI = CC[C@H](C)[C@H](NC)C(=O)O; NMeD = CN[C@@H](CC(=O)O)C(=O)O; NMeL = CN[C@@H](CC(C)C)C(=O)O; NMeAbu = CC[C@H](NC)C(=O)O; Morpholide = C1CN(*)CCO1; NMeA = CN[C@@H](C)C(=O)O; Ac5c = NC1(C(=O)O)CCCC1; Aze = O=C(O)[C@@H]1CCN1; Sar = CNCC(=O)O
How the values were obtained:
[1] = biological target: GDP-bound NRAS wild-type protein (Homo sapiens, UniProt P01111); assay: Binding to NRAS by surface plasmon resonance (SPR), Single Cycle Kinetics; conditions: SPR; for NRAS/KRAS (ratio of KD value with respect to NRAS to KD value with respect to KRAS) / NRAS/KRAS (ratio of KD value for NRAS to KD value for KRAS): GDP-bound NRAS wild-type vs GDP-bound KRAS wild-type
[2] = biological target: GDP-bound HRAS wild-type protein (Homo sapiens, UniProt P01112); assay: Binding to HRAS by surface plasmon resonance (SPR), Single Cycle Kinetics; conditions: SPR; for HRAS/KRAS (ratio of KD value with respect to HRAS to KD value with respect to KRAS) / HRAS/KRAS (ratio of KD value for HRAS to KD value for KRAS): GDP-bound HRAS wild-type vs GDP-bound KRAS wild-type
Sequence of GDP-bound HRAS wild-type protein (P01112 whole entry): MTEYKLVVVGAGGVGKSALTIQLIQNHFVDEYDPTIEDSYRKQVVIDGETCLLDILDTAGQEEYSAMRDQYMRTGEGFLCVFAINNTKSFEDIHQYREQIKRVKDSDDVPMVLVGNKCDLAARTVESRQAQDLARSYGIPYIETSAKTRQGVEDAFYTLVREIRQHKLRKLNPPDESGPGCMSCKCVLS

Sequence of GDP-bound NRAS wild-type protein (P01111 whole entry): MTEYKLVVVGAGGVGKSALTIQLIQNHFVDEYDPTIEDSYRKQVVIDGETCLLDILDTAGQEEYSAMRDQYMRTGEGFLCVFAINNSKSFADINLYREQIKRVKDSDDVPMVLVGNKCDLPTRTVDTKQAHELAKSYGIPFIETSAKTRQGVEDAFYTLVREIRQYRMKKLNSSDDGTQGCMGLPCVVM

Structure (SMILES): CCCN1C(=O)CN(C)C(=O)CN(C)C(=O)[C@H]([C@@H](C)CC)NC(=O)[C@H](CC)N(C)C(=O)C[C@@H](C(=O)N2CCOCC2)N(C)C(=O)[C@H](C2CCCC2)N(C)C(=O)C2(CCCC2)NC(=O)[C@@H]2CC(F)(F)CN2C(=O)[C@H](CCc2ccc(C(F)(F)F)c(Cl)c2)NC(=O)CN(C)C(=O)[C@@H]1Cc1ccc(C(F)(F)F)cc1 [PP0202] ([NMeAbu]I[Sar][Sar][NPrPhe(4-CF3)][Sar][hPhe(3-Cl-4-CF3)][Pro(4,4-F2)][Ac5c][NMeGly(cPent)][NMeD]-Morpholide; lactam N-11)
- NRAS/KRAS (ratio of KD for GDP-bound NRAS wild-type to KD for KRAS) [1]: B (a compound having 3 or more and less than 10 is denoted as B)
- HRAS/KRAS (ratio of KD for GDP-bound HRAS wild-type to KD for KRAS) [2]: C (A compound having a KD ratio of 0.1 or more and less than 3 is denoted as C)

Structure (SMILES): CCCN1C(=O)[C@@H]2CCN2C(=O)[C@H](C)N(C)C(=O)[C@H]([C@@H](C)CC)NC(=O)[C@H](CC(C)C)N(C)C(=O)C[C@@H](C(=O)N2CCOCC2)N(C)C(=O)[C@H](C2CCCC2)N(C)C(=O)C2(CCCC2)NC(=O)[C@@H]2C[C@@H](OC)CN2C(=O)[C@H](CCc2ccc(C(F)(F)F)c(Cl)c2)NC(=O)CN(C)C(=O)[C@@H]1Cc1ccc(C(F)(F)F)cc1 [PP0283] ([NMeL]I[NMeA][Aze][NPrPhe(4-CF3)][Sar][hPhe(3-Cl-4-CF3)][Hyp](Me)[Ac5c][NMeGly(cPent)][NMeD]-Morpholide; lactam N-11)
- NRAS/KRAS (ratio of KD for GDP-bound NRAS wild-type to KD for KRAS) [1]: C (A compound having a KD ratio of 0.1 or more and less than 3 is denoted as C)
- HRAS/KRAS (ratio of KD for GDP-bound HRAS wild-type to KD for KRAS) [2]: C (A compound having a KD ratio of 0.1 or more and less than 3 is denoted as C)

Structure (SMILES): CCO[C@H](C)[C@@H]1NC(=O)[C@H](CC(C)C)N(C)C(=O)C[C@@H](C(=O)N(C)CC)N(C)C(=O)[C@H](C2CCCC2)N(C)C(=O)C2(CC(C)(C)C2)NC(=O)[C@@H]2C[C@H](C)CN2C(=O)[C@H](CCc2ccc(C(F)(F)F)c(OC)c2)NC(=O)CN(C)C(=O)[C@H](Cc2ccc(C)cc2)N2CC/C=C\C[C@@H](C2=O)N(C)C(=O)[C@@H]2CCCN2C1=O [PP2419]
- NRAS/KRAS (ratio of KD value with respect to NRAS to KD value with respect to KRAS) [1]: A (a compound having 10 or more and less than 20 is denoted as A)
- HRAS/KRAS (ratio of KD value with respect to HRAS to KD value with respect to KRAS) [2]: A (a compound having 10 or more and less than 20 is denoted as A)

Structure (SMILES): CCO[C@@H]1C[C@H]2C(=O)NC3(CCC3)C(=O)N(C)[C@@H](C3CCCC3)C(=O)N(CC)[C@H](C(=O)N3CCOCC3)CC(=O)N(C)[C@@H](CCC(Cl)Cl)C(=O)N[C@@H]([C@@H](C)CC)C(=O)N(C)CC(=O)N(C)[C@H]3CCCCCN(C3=O)[C@@H](Cc3ccc(C(F)(F)F)cc3)C(=O)N(C)CC(=O)N[C@@H](CCc3cc(F)c(C(F)(F)F)c(F)c3)C(=O)N2C1 [PP0949]
- NRAS/KRAS (ratio of KD value with respect to NRAS to KD value with respect to KRAS) ([1]; KD ratio): A (a compound having 10 or more and less than 20 is denoted as A)
- HRAS/KRAS (ratio of KD value with respect to HRAS to KD value with respect to KRAS) ([2]; KD ratio): A (a compound having 10 or more and less than 20 is denoted as A)

Structure (SMILES): CC[C@H](C)[C@@H]1NC(=O)[C@H](Cc2cccc(Cl)c2)N(C)C(=O)C[C@@H](C(=O)N2CCOCC2)N(C)C(=O)[C@H](C2CCCC2)N(C)C(=O)C2(CCCC2)NC(=O)[C@@H]2CCCN2C(=O)[C@H](CCc2ccc(C(F)(F)F)c(Cl)c2)NC(=O)CN(C)C(=O)[C@H](Cc2ccc(F)cc2)N2CCCCC[C@@H](C2=O)N(C)C(=O)CN(C)C1=O [PP0963]
- NRAS/KRAS (ratio of KD value with respect to NRAS to KD value with respect to KRAS) ([1]; KD ratio): B (a compound having 3 or more and less than 10 is denoted as B)
- HRAS/KRAS (ratio of KD value with respect to HRAS to KD value with respect to KRAS) ([2]; KD ratio): B (a compound having 3 or more and less than 10 is denoted as B)

Structure (SMILES): CCOC[C@H]1C(=O)N[C@@H]([C@@H](C)CC)C(=O)N(C)CC(=O)N(C)[C@H]2C/C=C\CCN(C2=O)[C@@H](Cc2ccc(C(F)(F)F)cc2)C(=O)N(C)CC(=O)N[C@@H](CCc2ccc(C(F)(F)F)c(OC)c2)C(=O)N2C[C@@H](C)C[C@H]2C(=O)N(C)C2(CCC2)C(=O)N(C)[C@@H](C2CCCC2)C(=O)N(C)[C@H](C(=O)N(C)C)CC(=O)N1C [PP2359]
- NRAS/KRAS (ratio of KD value with respect to NRAS to KD value with respect to KRAS) [1]: A (a compound having 10 or more and less than 20 is denoted as A)
- HRAS/KRAS (ratio of KD value with respect to HRAS to KD value with respect to KRAS) [2]: B (a compound having 3 or more and less than 10 is denoted as B)

Structure (SMILES): CCO[C@@H]1C[C@H]2C(=O)NC3(CCC3)C(=O)N(C)[C@@H](C3CCCC3)C(=O)N3CCC[C@@H]3CC(=O)N(C)[C@@H](CC3CC3)C(=O)N[C@@H]([C@@H](C)CC)C(=O)N(C)CC(=O)N(C)[C@H]3C/C=C\CCN(C3=O)[C@@H](Cc3ccc(C(F)(F)F)cc3)C(=O)N(C)CC(=O)N[C@@H](CCc3ccc(C(F)(F)F)c(OC)c3)C(=O)N2C1 [PP1616]
- NRAS/KRAS (ratio of KD value for NRAS to KD value for KRAS) ([1]; KD ratio): B (a compound having 3 or more and less than 10 is denoted as B)
- HRAS/KRAS (ratio of KD value for HRAS to KD value for KRAS) ([2]; KD ratio): B (a compound having 3 or more and less than 10 is denoted as B)

Structure (SMILES): CCCN1C(=O)CN(C)C(=O)CN(C)C(=O)[C@H]([C@@H](C)CC)NC(=O)[C@H](CC(C)C)N(C)C(=O)C[C@@H](C(=O)N2CCOCC2)N(C)C(=O)[C@H]([C@@H](C)CC)N(C)C(=O)C2(CCCC2)NC(=O)[C@@H]2CCCN2C(=O)[C@H](CCc2ccc(C(F)(F)F)c(Cl)c2)NC(=O)CN(C)C(=O)[C@@H]1Cc1ccc(C(F)(F)F)cc1 [PP1926] ([NMeL]I[Sar][Sar][NPrPhe(4-CF3)][Sar][hPhe(3-Cl-4-CF3)]P[Ac5c][NMeI][NMeD]-Morpholide; lactam N-11)
- NRAS/KRAS (ratio of KD value for NRAS to KD value for KRAS) ([1]; KD ratio): B (a compound having 3 or more and less than 10 is denoted as B)
- HRAS/KRAS (ratio of KD value for HRAS to KD value for KRAS) ([2]; KD ratio): B (a compound having 3 or more and less than 10 is denoted as B)
